pIC50: −log10 of the molar value. Counter-ions that a name gives are not always drawn.
Experiments:
ZAP-70 = target: T1, ZAP-70 (Homo sapiens, UniProt P43403); test: ZAP-70 kinobeads assay; format: binding; settings: cell lysate
T1 construct: endogenous in cells; host or cells: cell lysate
T1 sequence (P43403 1-619): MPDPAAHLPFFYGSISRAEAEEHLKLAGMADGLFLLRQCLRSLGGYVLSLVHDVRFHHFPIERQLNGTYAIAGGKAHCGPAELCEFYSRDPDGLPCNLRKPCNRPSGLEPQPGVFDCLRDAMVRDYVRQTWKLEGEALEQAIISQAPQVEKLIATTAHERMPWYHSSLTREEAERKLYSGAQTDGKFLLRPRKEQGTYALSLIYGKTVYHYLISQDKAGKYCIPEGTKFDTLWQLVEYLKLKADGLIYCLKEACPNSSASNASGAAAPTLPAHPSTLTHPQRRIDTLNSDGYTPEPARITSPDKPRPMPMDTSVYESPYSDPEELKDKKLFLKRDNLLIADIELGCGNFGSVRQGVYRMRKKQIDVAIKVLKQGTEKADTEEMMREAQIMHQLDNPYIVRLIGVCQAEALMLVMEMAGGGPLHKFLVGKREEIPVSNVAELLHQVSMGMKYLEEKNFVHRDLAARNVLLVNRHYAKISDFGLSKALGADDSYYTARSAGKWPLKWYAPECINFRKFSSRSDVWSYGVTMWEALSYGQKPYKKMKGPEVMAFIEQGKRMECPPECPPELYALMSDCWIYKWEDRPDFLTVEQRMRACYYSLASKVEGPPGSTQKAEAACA
Method: The compounds of the present invention as described in the previous examples can be tested in the ZAP-70 kinobeads assay as described (EP-A 1862802 and WO-A 2007/137867). Briefly, test compounds (at various concentrations) and the affinity matrix with the immobilized aminopyrido-pyrimidine ligand 24 are added to cell lysate aliquots and allowed to bind to the proteins in the lysate sample. After the incubation time the beads with captured proteins are separated from the lysate. Bound proteins are then eluted and the presence ZAP-70 is detected and quantified using a specific antibody in a dot blot procedure and the Odyssey infrared detection system.

[1] = tested on: Calcium Ion Release in Cells; test: calcium release assay (measurement of calcium ion release in cells); format: cell-based; settings: calcium release assay as described in WO-A 2009/080638

| Structure (SMILES) | pIC50 (ZAP-70) | pIC50 [1] |
| --- | --- | --- |
| COc1ccc(Nc2nc(Nc3cc(OCCCN4CCCCC4)ccc3OC)ncc2Cl)c(NS(C)(=O)=O)c1 [Example 2, N-(2-(5-chloro-2-(2-methoxy-5-(3-(piperidin-1-yl)propoxy)phenylamino)pyrimidin-4-ylamino)-5-methoxyphenyl)methanesulfonamide] | ≥ 7.00 | ≥ 6.00 |
| COc1ccc(Nc2nc(Nc3cnc(OC)cc3OC)ncc2Cl)c(NS(C)(=O)=O)c1 [Example 3, N-(2-(5-chloro-2-(4,6-dimethoxypyridin-3-ylamino)pyrimidin-4-ylamino)-5-methoxyphenyl)methanesulfonamide] | ≥ 7.00 | ≥ 6.00 |
| COc1ccc(Nc2nc(Nc3ccc(OCCO)cc3OC)ncc2Cl)c(NS(C)(=O)=O)c1 [Example 4, N-(2-(5-chloro-2-(4-(2-hydroxyethoxy)-2-methoxyphenylamino)pyrimidin-4-ylamino)-5-methoxyphenyl)methanesulfonamide] | ≥ 7.00 | ≥ 6.00 |
| COc1ccc(Nc2nc(Nc3cccc(OCC(=O)N4CCC4)c3C)ncc2Cl)c(NS(C)(=O)=O)c1 [Example 5, N-(2 (2 (3 (2 (azetidin-1-yl)-2-oxoethoxy)-2-methylphenylamino)-5-chloropyrimidin-4-ylamino)-5-methoxyphenyl)methanesulfonamide] | ≥ 7.00 | ≥ 6.00 |
| COc1ccc(OC)c(Nc2ncc(Cl)c(Nc3ccccc3NS(C)(=O)=O)n2)c1 [Example 16, N-(2-(5-chloro-2-(2,5-dimethoxyphenylamino)pyrimidin-4-ylamino)phenyl)methanesulfonamide hydrochloride] | 6.00 to 7.00 | ≥ 6.00 |
| COc1ccc(Nc2nc(Nc3cc(OC)c(OC)cc3OC)ncc2Cl)c(NS(C)(=O)=O)c1 [Example 29, N-(2-(5-chloro-2-(2,4,5-trimethoxyphenylamino)pyrimidin-4-ylamino)-5-methoxyphenyl)methanesulfonamide] | 6.00 to 7.00 | ≥ 6.00 |
| COc1ccc(Nc2nc(Nc3ccc(OCCCN4CCCCC4)cc3OC)ncc2Cl)c(NS(C)(=O)=O)c1 [Example 30, N-(2-(5-chloro-2-(2-methoxy-4-(3-(piperidin-1-yl)propoxy)phenylamino)pyrimidin-4-ylamino)-5-methoxyphenyl)methanesulfonamide] | ≥ 7.00 | ≥ 6.00 |
| COc1ccc(Nc2nc(Nc3ccc(OC)c(OC)c3OC)ncc2Cl)c(NS(C)(=O)=O)c1 [Example 32, N-(2-(5-chloro-2-(2,3,4-trimethoxyphenylamino)pyrimidin-4-ylamino)-5-methoxyphenyl)methanesulfonamide hydrochloride] | 6.00 to 7.00 | ≥ 6.00 |
| COc1ccc(Nc2nc(Nc3cc(OC)c(OC)cc3C)ncc2Cl)c(NS(C)(=O)=O)c1 [Example 37, N-(2-(5-chloro-2-(4,5-dimethoxy-2-methylphenylamino)pyrimidin-4-ylamino)-5-methoxyphenyl)methanesulfonamide] | ≥ 7.00 | ≥ 6.00 |
| COc1ccc(Nc2nc(Nc3ccc(OCCO)cc3F)ncc2Cl)c(NS(C)(=O)=O)c1 [Example 55, N-(2-(5-chloro-2-(2-fluoro-4-(2-hydroxyethoxy)phenylamino)pyrimidin-4-ylamino)-5-methoxyphenyl)methanesulfonamide] | 6.00 to 7.00 | ≥ 6.00 |
| COc1ccc(C)c(Nc2ncc(Cl)c(Nc3ccc(OC)cc3NS(C)(=O)=O)n2)c1 [Example 57, N-(2-(5-chloro-2-(5-methoxy-2-methylphenylamino)pyrimidin-4-ylamino)-5-methoxyphenyl)methanesulfonamide hydrochloride] | 6.00 to 7.00 | ≥ 6.00 |
| COc1ccc(Nc2nc(Nc3ccc(OCCN)cc3OC)ncc2Cl)c(NS(C)(=O)=O)c1 [Example 63, N-(2-(2-(4-(2-aminoethoxy)-2-methoxyphenylamino)-5-chloropyrimidin-4-ylamino)-5-methoxyphenyl)methanesulfonamide] | 6.00 to 7.00 | ≥ 6.00 |
| COc1ccc(Nc2nc(Nc3cc(OCCO)ccc3F)ncc2Cl)c(NS(C)(=O)=O)c1 [Example 64, N-(2-(5-chloro-2-(2-fluoro-5-(2-hydroxyethoxy)phenylamino)pyrimidin-4-ylamino)-5-methoxyphenyl)methanesulfonamide] | 6.00 to 7.00 | ≥ 6.00 |
| COc1ccc(Nc2nc(Nc3cccc(OCCO)c3C)ncc2Cl)c(NS(C)(=O)=O)c1 [Example 65, N-(2-(5-chloro-2-(3-(2-hydroxyethoxy)-2-methylphenylamino)pyrimidin-4-ylamino)-5-methoxyphenyl)methanesulfonamide] | ≥ 7.00 | ≥ 6.00 |
| COc1ccc(Nc2nc(Nc3cc(OCCN)ccc3OC)ncc2Cl)c(NS(C)(=O)=O)c1 [Example 67, N-(2-(2-(5-(2-aminoethoxy)-2-methoxyphenylamino)-5-chloropyrimidin-4-ylamino)-5-methoxyphenyl)methanesulfonamide hydrochloride] | 6.00 to 7.00 | ≥ 6.00 |
| COc1ccc(Nc2nc(Nc3cc(OCCO)ccc3OC)ncc2Cl)c(NS(C)(=O)=O)c1 [Example 68, N-(2-(5-chloro-2-(5-(2-hydroxyethoxy)-2-methoxyphenylamino)pyrimidin-4-ylamino)-5-methoxyphenyl)methanesulfonamide] | ≥ 7.00 | ≥ 6.00 |
| COc1ccc(Nc2nc(Nc3ccc(OCCN)cc3F)ncc2Cl)c(NS(C)(=O)=O)c1 [Example 69, N-(2-(2-(4-(2-aminoethoxy)-2-fluorophenylamino)-5-chloropyrimidin-4-ylamino)-5-methoxyphenyl)methanesulfonamide] | ≥ 7.00 | ≥ 6.00 |
| COc1ccc(Nc2nc(Nc3ccncc3C)ncc2Cl)c(NS(C)(=O)=O)c1 [Example 70, N-(2-(5-chloro-2-(3-methylpyridin-4-ylamino)pyrimidin-4-ylamino)-5-methoxyphenyl)methanesulfonamide] | ≥ 7.00 | ≥ 6.00 |
| COC(=O)CCc1ccc(OC)c(Nc2ncc(Cl)c(Nc3ccc(OC)cc3NS(C)(=O)=O)n2)c1 [Example 115, Methyl 3-(3-(5-chloro-4-(4-methoxy-2-(methylsulfonamido)phenylamino)pyrimidin-2-ylamino)-4-methoxyphenyl)propanoate] | 5.00 to 6.00 |  |
| COc1ccc(OCCO)cc1Nc1ncc(Cl)c(Nc2cccc(F)c2NS(C)(=O)=O)n1 [Example 116, N-(2-(5-chloro-2-(5-(2-hydroxyethoxy)-2-methoxyphenylamino)pyrimidin-4-ylamino)-6-fluorophenyl)methanesulfonamide] | 6.00 to 7.00 |  |
| COc1ccc(Nc2nc(Nc3cc(OCCO)ccc3OC)ncc2Br)c(NS(C)(=O)=O)c1 [Example 117, N-(2-((5-bromo-2-((5-(2-hydroxyethoxy)-2-methoxyphenyl)amino)pyrimidin-4-yl)amino)-5-methoxyphenyl)methanesulfonamide] | ≥ 7.00 |  |
| COc1ccc(OCCO)cc1Nc1ncc(Cl)c(Nc2cccc(C)c2NS(C)(=O)=O)n1 [Example 118, N-(2-(5-chloro-2-(5-(2-hydroxyethoxy)-2-methoxyphenylamino)pyrimidin-4-ylamino)-6-methylphenyl)methanesulfonamide] | 6.00 to 7.00 |  |
| COc1ccc(OCCO)cc1Nc1ncc(Cl)c(Nc2cccc(OC)c2NS(C)(=O)=O)n1 [Example 119, N-(2-(5-chloro-2-(5-(2-hydroxyethoxy)-2-methoxyphenylamino)pyrimidin-4-ylamino)-6-methoxyphenyl)methanesulfonamide] | 6.00 to 7.00 |  |
